We go through three molecules from patent US9149440B2, “Nanoparticles for drug-delivery” (UNIVERSITY OF SOUTH FLORIDA, priority 2003, dated 2015).

Series [1] relates to C. parapsilosis (ATCC 22019). The series can be described thus: Antifungal agar well diffusion, zones of inhibition. To be noted: Lodderomyces parapsilosis, ATCC22019; 50 μg, 48 hours; read-out: zone of growth inhibition, standard. In kind it is cell-based. (In agar diffusion tests the substance spreads into inoculated agar from a disc or well.)
Another series relates to C. tropicalis. The description is as above. The class given is cell-based. The conditions noted are these: Candida tropicalis; 50 μg, 48 hours; read-out: zone of growth inhibition, standard.
For series [2], the system named is C. lusitaniae (ATCC 34449). Described as above. The class given is cell-based. To be noted: Clavispora lusitaniae, ATCC34449; 50 μg, 48 hours; read-out: zone of growth inhibition, standard. The method, then: (§1) Antifungal testing of these nanoparticles was performed by Kirby-Bauer disc diffusion on agar plates against eight genera of fungi.
For the next series, the system named is C. albicans. Described as above. In kind it is cell-based. To be noted: Candida albicans; 50 μg, 48 hours; read-out: zone of growth inhibition, standard. How it is done:
as §1

The next series concerns C. utilis (ATCC 29950). The description is as above. In kind it is cell-based. To be noted: Williopsis jadinii, ATCC29950; 50 μg, 48 hours; read-out: zone of growth inhibition, standard. The method, then:
as §1

In a further series the test system is C. krusei (ATCC 14243). Described as above. The class given is cell-based. The conditions noted are these: Pichia kudriavzevii, ATCC14243; 50 μg, 48 hours; read-out: zone of growth inhibition, standard.
For the next series, the system named is C. kefyr. The series is described as above. The class given is cell-based. To be noted: Kluyveromyces marxianus; 50 μg, 48 hours; read-out: zone of growth inhibition, standard.
For a further series, the system named is C. glabrata (ATCC 15126). The series is described as above. The conditions noted are these: Nakaseomyces glabratus, ATCC15126; 50 μg, 48 hours; read-out: zone of growth inhibition, standard. The class given is cell-based.
A further series in a line: Water solubility. The class given is physicochemical.

The zone of inhibition is the extent of the growth-free halo in a diffusion test. With `Clc1ccccc1C(c1ccccc1)(c1ccccc1)n1ccnc1` [clotrimazole], the zone of inhibition at 50 µg/disc in series [1] is 32 mm; in the series with C. tropicalis, 20 mm; in series [2] it was 25 mm; in the series on C. albicans, 20 mm; in the series on C. utilis (ATCC 29950), 24 mm; in the series with C. krusei (ATCC 14243), 27 mm. Moreover, the zone of inhibition at 50 µg/disc stood at 37 mm with C. kefyr and 14 mm in the series with C. glabrata (ATCC 15126).

Broadly, the melting point is the temperature of the solid-liquid transition. For the molecule `C=CC(=O)OC(C)OC(=O)c1c2ccccc2cc2ccccc12` (stereo not shown), the melting point lay within 66 to 68 °C.

As to `C=CC(=O)C1C(=O)N(SC)C1c1ccccc1Cl` (racemic) [N-methylthiolated β-lactam, 3-acryloyl-N-methylthio-4-(2-chlorophenyl)-2-azetidinone], in the series “Water solubility”, the water solubility result is “water-insoluble”.
